Reference: patent US3951949A, “Sulfates of hydroxyethyl starch” (Ajinomoto Co., Inc., priority 1973, dated 1976)

How the values were obtained:
bovine serum albumin = bovine serum albumin (Bos taurus, UniProt P02769); test: Inhibition of heat denaturation of serum protein (turbidity); conditions: 0.5 (W/V) % bovine serum albumin, test substance 3 × 10^-3 M per repeating unit, 1/15M phosphate buffer PH=5.4, 67°C 3 minutes
Experimental: Inhibition of heat denaturation of serum proteins is widely used for screening potential pharmaceutical agents for anti-inflammatory activity. The test is described in "Inhibition of Heat Denaturation of Serum Protein," Y. Mizushima, Arch. Int. Pharmacodyn.
In the test, the sodium salt of hydroxyethyl starch sulfate was dissolved in 1/15M phosphate suffer solution (PH=5.4) and to the solution the same phosphate buffer solution containing 1% bovine serum albumin was added in a 1:1 volume ratio. The solution was stirred at 25°C for 20 minutes and then stirred at 67°C for 3 minutes and cooled. The turbidity of the test solutions thus obtained was compared with that of a solution obtained by adding 1/15M phosphate buffer solution containing 1% bovine serum albumin to 1/15M phosphate buffer solution in a 1:1 volume ratio, and the inhibition degree of heat denaturation were calculated.

pepsin = test: Pepsin inhibition activity; format: biochemical; conditions: 0.30% aqueous solution (PH=1.8) 1 ml; 20 μg pepsin 1 ml; 1.5% bovine hemoglobin 1 ml; 30°C, 10 min
Experimental: The pepsin inhibition activity of the products of the invention was tested. The anti-ulcer activity of the compounds of the invention is evident.
*0.30% Sulfate of hydroxyethyl starch aqueous solution (PH=1.8) 1 ml; 20
μ g pepsin aqueous solution (PH=1.8) 1 ml; 1.5% Bovine hemoglobin

hyaluronidase = test: Hyaluronidase inhibition activity; format: biochemical; conditions: 0.16% in phosphate buffer (PH=7.0) 0.25 ml; hyaluronic acid phosphate buffer (PH=5.3) 0.5 ml; bovine serum albumin buffer (PH=3.75) 5.0 ml; 38°C, 45 minutes
Experimental: Hyaluronidase inhibition activities of sulfate of hydroxyethyl starch were tested.
*0.16% Sulfate of hydroxyethyl starch phosphate buffer (PH=7.0) 0.25 ml;
hyaluronic acid phosphate buffer (PH=5.3) 0.5 ml; Bovine serum albumin
phosphate buffer (PH=3.75) 5.0 ml 38°C, 45 minutes.

bovine serum albumin, sequence (P02769 25-607): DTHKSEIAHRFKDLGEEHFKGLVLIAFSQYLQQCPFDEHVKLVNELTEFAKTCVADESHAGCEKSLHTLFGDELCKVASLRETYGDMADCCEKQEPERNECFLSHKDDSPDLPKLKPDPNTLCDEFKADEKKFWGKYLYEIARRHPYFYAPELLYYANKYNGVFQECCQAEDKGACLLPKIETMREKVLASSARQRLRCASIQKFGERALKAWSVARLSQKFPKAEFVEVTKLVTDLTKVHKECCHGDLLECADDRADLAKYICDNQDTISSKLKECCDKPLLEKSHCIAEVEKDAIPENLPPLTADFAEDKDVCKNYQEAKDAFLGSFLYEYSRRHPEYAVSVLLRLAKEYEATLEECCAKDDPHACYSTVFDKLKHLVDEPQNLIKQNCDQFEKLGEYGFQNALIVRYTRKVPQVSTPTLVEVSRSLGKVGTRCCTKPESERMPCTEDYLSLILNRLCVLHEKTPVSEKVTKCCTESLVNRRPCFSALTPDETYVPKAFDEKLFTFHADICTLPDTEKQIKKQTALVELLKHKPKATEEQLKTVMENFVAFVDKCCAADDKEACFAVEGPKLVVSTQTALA

Row | Substance | Inhibition Ratios of Heat Denaturation of Bovine Serum Albumin (bovine serum albumin; 3 min, 3000 µM) [%] | Pepsin Inhibition Ratio (pepsin) [%] | Inhibition Ratio (hyaluronidase) (hyaluronidase) [%] | Inhibition Ratios of Heat Denaturation of Bovine Serum Albumin (bovine serum albumin) [%]
1 | Sodium Salt of Sulfate of Hydroxyethyl Starch [Example 14.5] | 98.8 |  |  | 
2 | Hydroxyethyl Starch [reference compound] |  | 1 | 10 | 
3 | Sodium Salt of Sulfate of Hydroxyethyl Starch [Example 1.6] | 97.9 |  |  | 
4 | sodium salts of sulfate of hydroxyethyl starch [Ex. 6] |  | 83 | 96 | 93.4
5 | Sodium Salt of Sulfate of Hydroxyethyl Starch [Example 8.2] | 98.1 |  |  | 
6 | Sodium Salt of Sulfate of Hydroxyethyl Starch [Example 11.1] | 97.6 |  |  | 
7 | Sodium Salt of Sulfate of Hydroxyethyl Starch [Example 6.3] | 98.1 |  |  | 
